Our source for the EC50 values is US8183243B2, “Melanocortin receptor agonists” (LG Life Sciences Ltd., priority 2008, dated 2012).

pEC50: −log10 of the molar value.

Broadly, the pEC50 is the negative decadic logarithm of the EC50, by convention in mol/L.

The target in the assay is T1, MC4R (Homo sapiens, UniProt P32245).
T1 construct: expressed in transfected cells; host or cells: HEK (Human Embryonic Kidney) permanent expression cell line HEK MC4R-Luc, co-expressing CRE-luciferase
As to the kind of experiment: MCR agonistic activity (luciferase assay / cAMP accumulation assay) on MC4R. The class given is cell-based. Conditions: HEK cell lines expressing MC4R; method A (CRE-luciferase) or B (cAMP accumulation), not said which; read-out: EC50 value, agonistic activity to MC4R (range per group of Examples). In outline:
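HEK cells stably expressing MC4R with a CRE-luciferase reporter treated 5 hours at 37 °C with serially diluted agonist (≤1% DMSO); luminescence expressed relative to 10 nM NDP-MSH, EC50 at half-maximal signal. Alternatively, cAMP measured after 30 minutes with compound plus 500 μM IBMX by [3H]-cAMP competition binding.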
(Cyclic AMP is a second messenger, typically raised through Gs and lowered through Gi signalling.)

T1 sequence (P32245 whole entry, species assumed): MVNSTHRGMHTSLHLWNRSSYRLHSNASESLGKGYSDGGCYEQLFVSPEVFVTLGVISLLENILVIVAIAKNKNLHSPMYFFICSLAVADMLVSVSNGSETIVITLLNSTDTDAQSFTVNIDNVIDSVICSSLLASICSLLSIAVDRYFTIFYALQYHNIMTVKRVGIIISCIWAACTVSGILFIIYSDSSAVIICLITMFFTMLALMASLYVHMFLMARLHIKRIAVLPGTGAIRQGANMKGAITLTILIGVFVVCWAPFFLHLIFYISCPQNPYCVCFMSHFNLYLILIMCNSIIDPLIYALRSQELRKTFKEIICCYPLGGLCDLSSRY

On to `CN1CCN(C(=O)[C@@H]2C[C@@H](N(C(=O)[C@@H]3CCCO3)[C@H]3CC[C@@H](C)CC3)CN2C(=O)[C@@H]2CN(C(C)(C)C)C[C@H]2c2ccc(Cl)cc2)CC1` [Example 76, (2S)-N-{(3R,5S)-1-{[(3S,4R)-1-tert-butyl-4-(4-chlorophenyl)pyrrolidin-3-yl]carbonyl}-5-[(4-methylpiperazin-1-yl)carbonyl]pyrrolidin-3-yl}-N-(cis-4-methylcyclohexyl)tetrahydrofuran-2-carboxamide], for which the pEC50 is 6.00 to 7.00.

`CN1CCN(C(=O)[C@@H]2C[C@H](N(C(=O)[C@@H]3CCCO3)c3ccc(F)cc3F)CN2C(=O)[C@@H]2CN(C(C)(C)C)C[C@H]2c2ccc(Cl)cc2)CC1` [Example 77, (2S)-N-{(3S,5S)-1-{[(3S,4R)-1-tert-butyl-4-(4-chlorophenyl)pyrrolidin-3-yl]carbonyl}-5-[(4-methylpiperazin-1-yl)carbonyl]pyrrolidin-3-yl}-N-(2,4-difluorophenyl)tetrahydrofuran-2-carboxamide]: the pEC50 is 7.00 to 8.00.

In the case of `CC(C)C(=O)N(c1ccc(F)cc1F)[C@H]1C[C@@H](C(=O)N2CCNCC2)N(C(=O)[C@@H]2CN(C(C)(C)C)C[C@H]2c2ccc(Cl)cc2)C1` [Example 78, N-[(3S,5S)-1-{[(3S,4R)-1-tert-butyl-4-(4-chlorophenyl)pyrrolidin-3-yl]carbonyl}-5-(piperazin-1-ylcarbonyl)pyrrolidin-3-yl]-N-(2,4-difluorophenyl)-2-methylpropanamide], the pEC50 was 8.00 to 10.00.

Consider `CN1CCN(C(=O)[C@@H]2C[C@H](N(C(=O)C(C)(C)C)c3ccc(F)cc3F)CN2C(=O)[C@@H]2CN(C(C)(C)C)C[C@H]2c2ccc(Cl)cc2)CC1` [Example 80, N-{(3S,5S)-1-{[(3S,4R)-1-tert-butyl-4-(4-chlorophenyl)pyrrolidin-3-yl]carbonyl}-5-[(4-methylpiperazin-1-yl)carbonyl]pyrrolidin-3-yl}-N-(2,4-difluorophenyl)-2,2-dimethylpropanamide], for which the pEC50 is 8.00 to 10.00.

Regarding `CC(C)(C)C(=O)N(c1ccc(F)cc1F)[C@H]1C[C@@H](C(=O)N2CCNCC2)N(C(=O)[C@@H]2CN(C(C)(C)C)C[C@H]2c2ccc(Cl)cc2)C1` [Example 81], the pEC50 was 8.00 to 10.00.

On to `CN1CCN(C(=O)[C@@H]2C[C@H](N(C(=O)C(C)(C)C)c3ccc(F)cc3F)CN2C(=O)[C@@H]2CN(C(C)(C)C)C[C@H]2c2ccc(F)cc2F)CC1` [Example 82, N-{(3S,5S)-1-{[(3S,4R)-1-tert-butyl-4-(2,4-difluorophenyl)pyrrolidin-3-yl]carbonyl}-5-[(4-methylpiperazin-1-yl)carbonyl]pyrrolidin-3-yl}-N-(2,4-difluorophenyl)-2,2-dimethylpropanamide], for which the pEC50 is 8.00 to 10.00.

`CN1CCN(C(=O)[C@@H]2C[C@H](N(C(=O)c3ccco3)c3ccc(F)cc3F)CN2C(=O)[C@@H]2CN(C(C)(C)C)C[C@H]2c2ccc(Cl)cc2)CC1` [Example 83, N-{(3S,5S)-1-{[(3S,4R)-1-tert-butyl-4-(4-chlorophenyl)pyrrolidin-3-yl]carbonyl}-5-[(4-methylpiperazin-1-yl)carbonyl]pyrrolidin-3-yl}-N-(2,4-difluorophenyl)-2-furamide]: the pEC50 was 7.00 to 8.00.
